The source of these data is patent US20170349532A1, “CATIONIC LIPID” (Kyowa Hakko Kirin Co., Ltd., priority 2011, published 2017).

A short description of one data set: Average particle diameter of preparation (Zetasizer Nano ZS). It counts as physicochemical. The note with it: Comparative Examples 1 to 8, prepared as Example 118 with apo-b siRNA. In outline:
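Lipid nanoparticles formed by mixing cationic lipid/PEG-DMPE Na/DSPC/cholesterol (8.947/1.059/5.708/13.697 mmol/L in 90% ethanol, 37 °C) with apo-b siRNA in Tris-EDTA/citrate buffer pH 5.0, then diluted with citrate/NaCl pH 6.0 and DPBS to 10 μM siRNA. Mean complex diameter measured by dynamic light scattering.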
`CCCCC/C=C\C/C=C\CCCCCCCCOC1CN(Cc2ccccc2)C[C@H]1OCCCCCCCC/C=C\C/C=C\CCCCC` (stereo in doubt) [Compound VI-3, (3R,4R)-1-Benzyl-3,4-bis((9Z,12Z)-octadec-9,12-dienyloxy)pyrrolidine, reference compound]: the “average particle diameter of the complex between the cationic lipis and the nucleic acid in the preparation” value is reported as 167.8 nm.

The same data set, now with this note: average particle diameter of cationic lipid/nucleic acid complex; Example 118 preparation: compound/PEG-DMPE Na/DSPC/cholesterol with apo-b siRNA.
Consider `CCCCC/C=C\C/C=C\CCCCCCCCOC[C@@H]1CN(C)C[C@H]1COCCCCCCCC/C=C\C/C=C\CCCCC` (relative stereo) [Compound 107, trans-1-Methyl-3,4-bis(((9Z,12Z)-octadec-9,12-dienyloxy)methyl)pyrrolidine], for which the “Particle diameter of Preparetion” value is 139.1 nm.
Same read-out and setting: in the case of `CCCCC/C=C\C/C=C\CCCCCCCC(=O)OCCN(CCOC(=O)CCCCCCC/C=C\C/C=C\CCCCC)C(=O)[C@@H](N)CCCCN` [Compound 100, (S)-2,6-Diamino-N,N-bis(2-((9Z,12Z)-octadec-9,12-dienoyloxy)ethyl)hexanamido] it was 135.1 nm.
On the same count and under the same terms, the same measure for `CCCCC/C=C\C/C=C\CCCCCCCCO[C@@H]1CN(CC(O)COC)C[C@H]1OCCCCCCCC/C=C\C/C=C\CCCCC` (stereo partly drawn) [Compound 55, 1-(3R,4R)-3,4-bis(((9Z,12Z)-Octadec-9,12-dienyloxy)pyrrolidine-1-yl)-3-methoxypropan-2-ol]: 139.6 nm; for `CCCCC/C=C\C/C=C\CCCCCCCC(=O)O[C@@H]1CN(C(=O)[C@@H](N)CCCCN)C[C@H]1OC(=O)CCCCCCC/C=C\C/C=C\CCCCC` [Compound 66, (3R,4R)-1-((S)-2,6-Diaminohexanoyl)pyrrolidine-3,4-diyl di((9Z,12Z)-octadec-9,12-enoate)]: 137.4 nm; for `CCCCC/C=C\C/C=C\CCCCCCCCO[C@@H]1CN(CC(O)CO)C[C@H]1OCCCCCCCC/C=C\C/C=C\CCCCC` (stereo partly drawn) [Compound 24, 3-((3R,4R)-3,4-bis((9Z,12Z)-Octadec-9,12-dienyloxy)pyrrolidin-1-yl) propane-1,2-diol]: 160.7 nm.
Same read-out and setting: in the case of `CCCCC/C=C\C/C=C\CCCCCCCC(=O)OCCNCCOC(=O)CCCCCCC/C=C\C/C=C\CCCCC` [Compound 74, N,N-bis(2-((9Z,12Z)-Octadec-9,12-dienoyloxy)ethyl)amine] it was 128.4 nm.
In the case of `CCCCCC/C=C\CCCCCCCCCCOCCN(C)CCOCCCCCCCCCC/C=C\CCCCCC` [Compound 77, N-Methyl-N,N-bis(2-((Z)-octadec-11-enyloxy)ethyl)amine], the “Particle diameter of Preparetion” value amounted to 119.7 nm.
The same measure, in the same setting: the same measure for `CCCCCCCC/C=C\CCCCCCCCO[C@@H]1CN(C)C[C@H]1OCCCCCCCC/C=C\CCCCCCCC` [Compound 12, (3R,4R)-1-Methyl-3,4-bis((Z)-octadec-9-enyloxy)pyrrolidine]: 161.3 nm.
Turning to `CCCCC/C=C\C/C=C\CCCCCCCCO[C@@H]1CN(CCCN(C)C)C[C@H]1OCCCCCCCC/C=C\C/C=C\CCCCC` [Compound 59, (3R,4R)-1-(3-N,N-Dimethylaminopropyl)-3,4-bis((9Z,12Z)-octadec-9,12-dienyloxy)pyrrolidine], the “Particle diameter of Preparetion” value was determined as 116.7 nm.
On the same count and under the same terms, the same measure for `CCCCC/C=C\C/C=C\CCCCCCCCO[C@@H]1CN(C(=O)CCN(C)C)C[C@H]1OCCCCCCCC/C=C\C/C=C\CCCCC` [Compound 28, (3R,4R)-1-(3-(Dimethylamino)propanoyl)-3,4-bis((9Z,12Z)-octadec-9,12-dienyloxy)pyrrolidine]: 132.2 nm; for `CCCCCCCC/C=C\CCCCCCCC(=O)O[C@@H]1C[N+](C)(C)C[C@H]1OC(=O)CCCCCCC/C=C\CCCCCCCC.[Cl-]` [Compound 23, (3R,4R)-1,1-Dimethyl-3,4-bis((Z)-octadec-9-enoyloxy)pyrrolidinium chloride]: 108.7 nm; for `CCCCC/C=C\C/C=C\CCCCCCCCO[C@@H]1CN(C(=O)CCCCCN)C[C@H]1OCCCCCCCC/C=C\C/C=C\CCCCC` [Compound 64, (3R,4R)-1-(6-Aminohexanoyl)-3,4-bis((9Z,12Z)-octadec-9,12-dienyloxy)pyrrolidine]: 146.0 nm.
